Experiment [1] has as its system MRSA COL strains bearing xylose-regulated antisense fragments corresponding to FtsZ, FtsA, or FtsW. Format: cell-based, Staphylococcus aureus. Particulars: 50 mM xylose (antisense induced) versus no xylose, FtsZ-AS. As for the experimental part: See Forsyth et al., 2002, Mol. Microbial 43:1387-1400 for details concerning plasmid and antisense interference construction. Strains were grown overnight in Luria Bertani (LB) Miller broth at 37° C. containing 34 μg/ml chloramphenicol. Assay plates were prepared by seeding 10^7 cells/ml of each culture into 48° C. cooled LB Miller agar containing 34 μg/ml chloramphenicol. To partially repress FtsZ expression, 50 mM xylose was supplemented to plates. This antisense inducer concentration modestly impairs growth of each strain equally, reflecting a 20% inhibitory growth concentration (i.e., xylose IC20˜50 mM).
The following antibiotics were then spotted on the surface of the plates: carbapenems, imipenem (12.8 μg) and ertapenem (51.2 μg); cephalosporins, cefepime (102.4 μg), ceftazidime (102.4 μg), and ceftriaxone (102.4 μg); and the β-lactam piperacillin (combined with the […] in a 8:1 molar ratio (25.6 μg). As a control, MRSA COL was identically tested but under conditions where no xylose was supplemented into the medium (i.e., non-repressed FtsZ) as well as by identically processing the MRSA COL strain transformed with pEPSA5 but lacking an antisense fragment (data not shown). As a control for the specificity of ftsZ, ftsA, and ftsW mutant susceptibility to β-lactams, the non-β-lactam cell wall antibiotic, vancomycin (0.8 μg) was additionally spotted. Plates were then incubated at 37° C. for 16 h and photographed.
The effect FtsZ, FtsA, or FtsW imparts on MRSA susceptibility to the above antibiotics was determined by comparing their zone of inhibition between plates supplemented with antisense inducer (50 mM xylose) versus those without xylose. Differential antibiotic zones of inhibition between FtsZ, FtsA, and FtsW antisense bearing strains grown under xylose induced versus non-induced conditions reflect Fts gene-dependent restoration of MRSA COL susceptibility to β-lactams.

Experiment [2] has as its system MRSA COL. In words: Checkerboard assay (MIC, FIC index) against MRSA. Type of experiment: cell-based, S. aureus. An excerpt: (§1) The checkerboard method is the technique most frequently used to assess antimicrobial combinations in vitro. See Antibiotics in Laboratory Medicine Victor Lorian ed. 2005. The term. checkerboard refers to the pattern of microtiter wells formed by multiple dilutions of the two antimicrobials being tested in concentrations equal to, above and below their minimal inhibitory concentrations (MICs) against the organisms being tested. The checkerboard consists of columns in which each well contains the same amount of Drug A being two-fold diluted along the x-axis and rows in which each well contains the same amount of Drug B being two-fold diluted on the Y-axis. The result is that each well contains a unique combination of the two drugs being tested. Also tested is the antimicrobial activity of each agent singly.
(§2) The 96 well U-bottom polypropylene microtiter plates (Fisher Scientific, Pittsburgh, Pa.) were inoculated with 90 μl of bacterial cells (grown in Tryptic Soy Broth at 37° C. for 18 hours with rotary shaking) diluted in cation-adjusted Mueller Hinton broth to a final concentration of ˜5.5×10^5 CFU/mL.
(§3) β-lactam antibiotics were two-fold serially diluted along the Y-axis of 96-well U-bottom microtiter dishes (Fisher Scientific, Pittsburgh, Pa.) in microbiological growth media [brain heart infusion broth (BBL)]. FtsZ inhibitors were serially diluted along the X-axis of 96-well U-bottom microtiter dishes in microbiological growth media. The plates were inoculated with bacterial cells (grown in Trypticase Soy Broth at 37° C. for 18 hours with rotary shaking) to a final concentration of ˜5×10^5 CFU/mL. Test plates were incubated stationery at 37° C. for 22-24 hours.
(§4) The FIC index is most commonly used to report results of studies with antimicrobial combinations. In this method, the FIC for each drug is derived by dividing the concentration of that drug necessary to inhibit growth in a given combination by the MIC of the test organism for that drug alone. The FTC index (FICI) is then calculated by summing the separate FICs of the drugs present in that test well. Synergism is defined as an FTC index of 0.5.

A further experiment has as its system MRSE CLB 26329. In words: Checkerboard assay (MIC, FIC index) against MRSE. Format: cell-based, S. epidermidis.
From the text: as §1, §2, §3, §4

Experiment [3] relates to MRSA COL. In words: MRSA deep thigh infection model in neutropenic mice. Type of experiment: in vivo, Staphylococcus aureus. Particulars: for reduction of bacterial burden per thigh: 24 hr. As for the experimental part:
Female mice (20-25 g) were rendered neutropenic via intraperitoneal injection of cyclophosphamide (Mead Johnson Pharmaceuticals) four days (150 mg/kg) and one day (100 mg/kg) prior to experimental infection. Neutropenic mice were infected on Day 0 via intramuscular thigh injection of 0.1 ml containing ˜1-2×10^6 CPU Staphylococcus aureus (strain B, MRSA COL) from freshly grown culture broth. Two hours post thigh infection, mice were randomized and groups were administered increasing doses of PC190723 (50, 100, 200 mg/kg orally (p.o.), t.i.d ([…]); equivalent to 150, 300, and 600 mg/kg/24 hr) in the absence or presence of imipenem/cilastatin (10 mg/kg/50 mg/kg subcutaneously (s.c.), t.i.d. ([…]); equivalent to 30 mg/kg/24 hr and 150 mg/ kg/24 hr). Assay control groups included non-infected, vehicle-treated mice, vehicle-treated baseline infected (t=0 hr) mice, vehicle-treated 24 hr infected (t=24 hr) mice, and linezolid ((Zyvox IV solution, Bell Medical; 40 mg/kg orally (p.o.), b.i.d. ([…]) equivalent to 80 mg/kg/24 hr).
Twenty four hours post the initiation of therapy, mice were sacrificed, thighs aseptically removed, placed in 4 ml sterile phosphate buffered saline (Fisher Scientific), and homogenized using a Polytron (Brinkmann Instruments). Homogenates were serially 100-fold diluted in 9.9 ml sterile saline and plated on Mannitol Salt Agar plates. Plates were incubated at 35° C. for 48 hours and colony forming units (CFU) of bacteria remaining per thigh were determined.

Setting [4] is: FtsZ inhibitor in combination with amoxicillin, MRSA COL.
Where [5] appears, read: FtsZ inhibitor in combination with cefazolin, MRSA COL.
Setting [6] is: FtsZ inhibitor in combination with cefdinir, MRSA COL.
The mark [7] stands for this setting: FtsZ inhibitor in combination with cefazolin.
The mark [8] stands for this setting: FtsZ inhibitor in combination with cefepime, lowest achievable for PC190723.

Read-outs that look alike come from different tables or passages of the source.

Regarding `COc1cc(Cc2cnc(N)nc2N)cc(OC)c1OC` [trimethoprim], the “change of susceptibility (zone of inhibition) on partial genetic inactivation of FtsZ, FtsA or FtsW” value in experiment [1] is “none of the FtsZ-AS, FtsA-AS, or FtsW-AS strains demonstrated altered hypersensitivity”.
Consider `NC(=O)c1c(F)ccc(OCc2nc3cc(Cl)cnc3s2)c1F` [PC190723], for which the “lower levels of imipenem required to inhibit growth” value came to 16 fold in the experiment with MRSA COL [2] (FtsZ inhibitor at FIC≦0.25 combined with imipenem, MRSA) and 32 fold in the experiment on MRSE CLB 26329 (FtsZ inhibitor at FIC≦0.25 combined with imipenem). The FICI with MRSA COL [2] (setting [4]) was 0.53; in the experiment with MRSA COL [2] (setting [5]) it was 0.38; in the experiment with MRSA COL [2] (setting [6]), 0.31; in the experiment with MRSA COL [2] (FtsZ inhibitor in combination with ertapenem at its clinical breakpoint (8 μg/ml), MRSA), 0.5; in the experiment with MRSA COL [2] (FtsZ inhibitor in combination with imipenem at its clinical breakpoint (4 μg/ml), MRSA), 0.31; with MRSE CLB 26329 (setting [7]), 0.31. Also, the FICI with MRSE CLB 26329 (setting [8]) was found to be 0.28; in the experiment with MRSE CLB 26329 (FtsZ inhibitor in combination with ertapenem at its clinical breakpoint (8 μg/ml)), 0.5; in the experiment on MRSE CLB 26329 (FtsZ inhibitor in combination with imipenem at its clinical breakpoint (4 μg/ml)), 0.31. The “FIC of the FtsZ inhibitor at which synergy with β-lactams was shown” value with MRSA COL [2] (MRSA) and in the experiment on MRSE CLB 26329 was 0.25 in each case. The MIC in the experiment with MRSA COL [2] (Staphylococcus aureus, agent alone, MRSA, read-out: minimal inhibitory concentration (MIC)) turned out to be 1 µg/mL; in the experiment on MRSA COL [2] (agent alone, MRSA, FIG. 5 legend, unit not given), 1.0; in the experiment on MRSE CLB 26329 (Staphylococcus epidermidis, agent alone, read-out: minimal inhibitory concentration (MIC)), 1 µg/mL; with MRSE CLB 26329 (agent alone, FIG. 5 legend, unit not given), 1.0. Besides, in the experiment with MRSA COL [2] (combined with PC190723 at FIC=0.5, MRSA), the “reduction of the effective inhibitory concentration of amoxicillin” value is about 32 fold. Further, the “antibacterial activity compared with linezolid” value in the experiment with MRSA COL [3] (10 mg/kg imipenem + 200 mg/kg PC190723, linezolid 40 mg/kg p.o. b.i.d.) is given as “approaching linezolid-like antibacterial activity”. Also, the “reduction of bacterial burden per thigh” value in the experiment with MRSA COL [3] (PC190723 50 mg/kg p.o. t.i.d. + imipenem 10 mg/kg s.c. t.i.d., FIG. 7A) is reported as −0.4 Log 10 CFU; in the experiment with MRSA COL [3] (PC190723 100 mg/kg p.o. t.i.d. + imipenem 10 mg/kg s.c. t.i.d., FIG. 7A), −1.2 Log 10 CFU; in the experiment with MRSA COL [3] (PC190723 100 mg/kg p.o. t.i.d. + imipenem 10 mg/kg s.c. t.i.d., FIG. 7B), −1.9 Log 10 CFU; with MRSA COL [3] (PC190723 200 mg/kg p.o. t.i.d. + imipenem 10 mg/kg s.c. t.i.d., FIG. 7A) it was −3.1 Log 10 CFU; in the experiment on MRSA COL [3] (PC190723 200 mg/kg p.o. t.i.d. + imipenem 10 mg/kg s.c. t.i.d., FIG. 7B) it was −2.6 Log 10 CFU. For the same compound, the “effect on MRSA COL bacterial burden in the thighs” value in the experiment with MRSA COL [3] (monotherapy over 24 hr, imipenem 10 mg/kg s.c. t.i.d. or PC190723 50, 100, 200 mg/kg p.o. t.i.d., neutropenic mice) is recorded as “did not significantly alter”.
Turning to `CN[C@H](CC(C)C)C(=O)N[C@H]1C(=O)N[C@@H](CC(N)=O)C(=O)N[C@H]2C(=O)N[C@H]3C(=O)N[C@H](C(=O)N[C@H](C(=O)O)c4cc(O)cc(O)c4-c4cc3ccc4O)[C@H](O)c3ccc(c(Cl)c3)Oc3cc2cc(c3O[C@@H]2O[C@H](CO)[C@@H](O)[C@H](O)[C@H]2O[C@H]2C[C@](C)(N)[C@H](O)[C@H](C)O2)Oc2ccc(cc2Cl)[C@H]1O` [vancomycin], the “change of susceptibility (zone of inhibition) on partial genetic inactivation of FtsZ, FtsA or FtsW” value in experiment [1] was “none of the FtsZ-AS, FtsA-AS, or FtsW-AS strains demonstrated altered hypersensitivity”.
With `CC(=O)NC[C@H]1CN(c2ccc(N3CCOCC3)c(F)c2)C(=O)O1` [linezolid], in experiment [1], the “change of susceptibility (zone of inhibition) on partial genetic inactivation of FtsZ, FtsA or FtsW” value is “none of the FtsZ-AS, FtsA-AS, or FtsW-AS strains demonstrated altered hypersensitivity”.
For `CC[C@H]1OC(=O)[C@H](C)[C@@H](O[C@H]2C[C@@](C)(OC)[C@@H](O)[C@H](C)O2)[C@H](C)[C@@H](O[C@@H]2O[C@H](C)C[C@H](N(C)C)[C@H]2O)[C@](C)(O)C[C@@H](C)CN(C)[C@H](C)[C@@H](O)[C@]1(C)O` [azithromycin], the “change of susceptibility (zone of inhibition) on partial genetic inactivation of FtsZ, FtsA or FtsW” value in experiment [1] was “none of the FtsZ-AS, FtsA-AS, or FtsW-AS strains demonstrated altered hypersensitivity”.
For the compound `O=C(O)c1cn(C2CC2)c2cc(N3CCNCC3)c(F)cc2c1=O` [ciprofloxacin], in experiment [1], the “change of susceptibility (zone of inhibition) on partial genetic inactivation of FtsZ, FtsA or FtsW” value was “none of the FtsZ-AS, FtsA-AS, or FtsW-AS strains demonstrated altered hypersensitivity”.
For Zantrin Z3, the “lower levels of cefazolin required to inhibit growth” value with MRSA COL [2] (FtsZ inhibitor at FIC≦0.25 combined with cefazolin, MRSA) amounted to 16 fold; in the experiment with MRSE CLB 26329 (FtsZ inhibitor at FIC≦0.25 combined with cefazolin), 16 fold. Further, the FICI entry with MRSA COL [2] (setting [4]) is listed as “no synergy was detected”; in the experiment with MRSA COL [2] (setting [5]) it was 0.25; in the experiment on MRSA COL [2] (setting [6]), 0.5; with MRSA COL [2] (FtsZ inhibitor in combination with cefepime, MRSA COL), 0.25; with MRSA COL [2] (FtsZ inhibitor in combination with ceftazidime, MRSA COL) it was 0.28; in the experiment on MRSE CLB 26329 (FtsZ inhibitor in combination with amoxicillin), 0.28. Besides, the FICI amounted to 0.31 with MRSE CLB 26329 (setting [7]), 0.27 in the experiment on MRSE CLB 26329 (FtsZ inhibitor in combination with cefdinir), 0.16 with MRSE CLB 26329 (setting [8]) and 0.50 in the experiment on MRSE CLB 26329 (FtsZ inhibitor in combination with ceftazidime). The “minimal inhibitory concentration (MIC)” value in the experiment with MRSA COL [2] (agent alone, MRSA) is given as 8−16.0 μg/ml; in the experiment with MRSE CLB 26329 (agent alone), 8−16.0 μg/ml. In addition, the “fraction of normal amoxicillin concentration needed to display MRSE efficacy” value in the experiment on MRSE CLB 26329 (amoxicillin paired with Z3) is on record as 1/16. Further, the “reduced cefdinir concentration to restore anti-MRSE activity” value in the experiment on MRSE CLB 26329 (cefdinir paired with Z3) was found to be 64 fold.
Turning to `C/C=C/C/C=C/CCC(=O)[C@H]1O[C@H]1C(N)=O` [cerulenin], the “change of susceptibility (zone of inhibition) on partial genetic inactivation of FtsZ, FtsA or FtsW” value in experiment [1] is “none of the FtsZ-AS, FtsA-AS, or FtsW-AS strains demonstrated altered hypersensitivity”.

These data come from patent US20130203726A1, “FtsZ INHIBITORS AS POTENTIATORS OF BETA-LACTAM ANTIBIOTICS AGAINST METHICILLIN-RESISTANT STAPHYLOCOCCUS” (priority 2010, published 2013).
